# Source: publication PMC4774911, “Biochemical Screening of Five Protein Kinases from Plasmodium falciparum against 14,000 Cell-Active Compounds” (PLoS ONE, 2016)
# “And” between values parts separate entries of the source, which are not always exact repeats. Equal values may be shown once. Read-outs that look alike come from different tables or passages of the source.
# Experiments:
# HepG2 cells = settings: cited from earlier work
# P. falciparum 3D7 cells = settings: cited from earlier work
# CDC42BPG = CDC42BPG (Homo sapiens, UniProt Q6DT37); test: biochemical; design: endogenous in cells; host or cells: K562 cell extract; species or system K562 (extract); replicate k of n = 2 (each experiment ID is one independent experiment; two experiment IDs per compound); settings: read-out: KDapp
# Chain of CDC42BPG (Q6DT37 whole entry): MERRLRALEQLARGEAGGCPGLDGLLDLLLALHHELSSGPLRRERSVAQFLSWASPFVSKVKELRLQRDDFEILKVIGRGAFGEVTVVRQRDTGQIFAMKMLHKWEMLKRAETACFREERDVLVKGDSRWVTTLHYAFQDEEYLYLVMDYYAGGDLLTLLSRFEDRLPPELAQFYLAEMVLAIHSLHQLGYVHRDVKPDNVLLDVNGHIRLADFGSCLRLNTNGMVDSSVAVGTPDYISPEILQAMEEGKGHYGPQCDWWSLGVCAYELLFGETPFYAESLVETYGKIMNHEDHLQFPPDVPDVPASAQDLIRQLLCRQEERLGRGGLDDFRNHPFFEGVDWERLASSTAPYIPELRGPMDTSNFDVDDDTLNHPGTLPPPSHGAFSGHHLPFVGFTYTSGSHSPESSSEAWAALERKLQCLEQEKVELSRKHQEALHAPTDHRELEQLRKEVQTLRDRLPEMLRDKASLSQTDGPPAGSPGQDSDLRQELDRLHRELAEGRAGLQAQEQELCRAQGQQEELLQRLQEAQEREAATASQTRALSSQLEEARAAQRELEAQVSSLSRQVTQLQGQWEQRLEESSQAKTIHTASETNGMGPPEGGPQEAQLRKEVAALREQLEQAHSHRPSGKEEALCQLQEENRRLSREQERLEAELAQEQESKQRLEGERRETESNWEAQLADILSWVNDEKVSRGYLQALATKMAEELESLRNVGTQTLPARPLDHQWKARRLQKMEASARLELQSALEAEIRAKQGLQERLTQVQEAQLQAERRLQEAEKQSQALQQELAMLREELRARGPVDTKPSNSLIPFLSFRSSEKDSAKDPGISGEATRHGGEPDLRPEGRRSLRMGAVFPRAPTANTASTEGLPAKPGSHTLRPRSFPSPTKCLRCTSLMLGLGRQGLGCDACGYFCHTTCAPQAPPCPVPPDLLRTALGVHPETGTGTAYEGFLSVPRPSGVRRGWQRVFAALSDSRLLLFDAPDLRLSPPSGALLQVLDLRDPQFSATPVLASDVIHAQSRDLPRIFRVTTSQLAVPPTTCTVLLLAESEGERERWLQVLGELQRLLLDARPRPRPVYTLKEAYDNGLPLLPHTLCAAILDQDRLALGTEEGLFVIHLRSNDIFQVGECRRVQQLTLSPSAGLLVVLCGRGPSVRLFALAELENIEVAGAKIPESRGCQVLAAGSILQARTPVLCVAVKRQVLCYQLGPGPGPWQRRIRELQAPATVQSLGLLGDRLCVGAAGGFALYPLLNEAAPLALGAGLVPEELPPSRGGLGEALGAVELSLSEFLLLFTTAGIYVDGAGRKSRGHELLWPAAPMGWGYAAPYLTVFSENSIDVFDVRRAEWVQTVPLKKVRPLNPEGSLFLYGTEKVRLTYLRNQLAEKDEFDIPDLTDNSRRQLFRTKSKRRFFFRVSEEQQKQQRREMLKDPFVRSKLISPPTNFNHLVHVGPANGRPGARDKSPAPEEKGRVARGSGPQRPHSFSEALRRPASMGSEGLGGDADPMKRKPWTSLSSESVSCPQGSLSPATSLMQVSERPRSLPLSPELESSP
# PAK4 = PAK4 (Homo sapiens, UniProt O96013); test: biochemical; design: endogenous in cells; host or cells: K562 cell extract; species or system K562 (extract); replicate k of n = 2 (each experiment ID is one independent experiment; two experiment IDs per compound); settings: read-out: KDapp
# Chain of PAK4 (O96013 whole entry): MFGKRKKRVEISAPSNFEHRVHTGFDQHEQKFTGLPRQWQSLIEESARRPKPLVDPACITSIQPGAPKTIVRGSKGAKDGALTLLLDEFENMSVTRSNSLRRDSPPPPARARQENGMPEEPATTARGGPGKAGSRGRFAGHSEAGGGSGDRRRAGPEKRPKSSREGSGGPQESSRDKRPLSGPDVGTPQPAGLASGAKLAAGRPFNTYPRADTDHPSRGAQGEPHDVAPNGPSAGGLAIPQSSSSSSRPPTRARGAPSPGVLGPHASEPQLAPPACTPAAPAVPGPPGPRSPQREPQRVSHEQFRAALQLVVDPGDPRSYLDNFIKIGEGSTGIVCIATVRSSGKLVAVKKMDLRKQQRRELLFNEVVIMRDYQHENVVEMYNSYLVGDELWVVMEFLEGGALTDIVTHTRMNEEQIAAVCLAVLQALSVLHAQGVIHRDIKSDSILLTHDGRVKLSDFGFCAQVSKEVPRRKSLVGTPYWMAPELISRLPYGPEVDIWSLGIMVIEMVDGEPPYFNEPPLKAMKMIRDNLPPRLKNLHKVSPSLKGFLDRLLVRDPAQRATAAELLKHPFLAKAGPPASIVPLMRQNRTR
# CSNK1A1 = CSNK1A1 (Homo sapiens, UniProt P48729); test: biochemical; design: endogenous in cells; host or cells: K562 cell extract; species or system K562 (extract); replicate k of n = 2 (each experiment ID is one independent experiment; two experiment IDs per compound); settings: read-out: KDapp
# CIT = CIT (Homo sapiens, UniProt O14578); test: biochemical; design: endogenous in cells; host or cells: K562 cell extract; species or system K562 (extract); replicate k of n = 2 (each experiment ID is one independent experiment; two experiment IDs per compound); settings: read-out: KDapp
# DDR1 = DDR1 (Homo sapiens, UniProt Q08345); test: biochemical; design: endogenous in cells; host or cells: K562 cell extract; species or system K562 (extract); replicate k of n = 2 (each experiment ID is one independent experiment; two experiment IDs per compound); settings: read-out: KDapp
# Chain of DDR1 (Q08345 whole entry): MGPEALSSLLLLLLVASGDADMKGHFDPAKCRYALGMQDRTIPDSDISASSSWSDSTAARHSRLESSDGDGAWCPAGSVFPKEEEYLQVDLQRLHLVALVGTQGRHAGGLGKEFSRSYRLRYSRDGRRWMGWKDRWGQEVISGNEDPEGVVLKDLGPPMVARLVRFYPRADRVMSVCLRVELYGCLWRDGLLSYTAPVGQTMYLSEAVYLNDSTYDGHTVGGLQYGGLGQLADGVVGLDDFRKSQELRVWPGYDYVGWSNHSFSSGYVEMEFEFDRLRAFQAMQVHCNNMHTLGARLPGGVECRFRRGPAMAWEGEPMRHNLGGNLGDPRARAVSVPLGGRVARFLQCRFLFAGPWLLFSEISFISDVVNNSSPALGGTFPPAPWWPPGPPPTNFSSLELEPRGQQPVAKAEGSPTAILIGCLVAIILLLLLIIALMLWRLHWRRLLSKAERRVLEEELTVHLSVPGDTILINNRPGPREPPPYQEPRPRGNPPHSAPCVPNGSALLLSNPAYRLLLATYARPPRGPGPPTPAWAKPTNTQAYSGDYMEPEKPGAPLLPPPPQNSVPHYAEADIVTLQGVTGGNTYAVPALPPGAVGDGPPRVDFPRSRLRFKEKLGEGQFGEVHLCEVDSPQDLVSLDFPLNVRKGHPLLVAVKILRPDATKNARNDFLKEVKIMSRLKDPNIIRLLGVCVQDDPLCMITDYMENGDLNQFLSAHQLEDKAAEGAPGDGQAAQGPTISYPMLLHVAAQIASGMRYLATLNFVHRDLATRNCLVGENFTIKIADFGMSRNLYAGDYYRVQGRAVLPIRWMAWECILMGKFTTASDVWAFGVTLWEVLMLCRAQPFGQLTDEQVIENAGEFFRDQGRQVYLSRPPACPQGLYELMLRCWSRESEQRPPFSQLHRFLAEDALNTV
# ABL2 = ABL2 (Homo sapiens, UniProt P42684); test: biochemical; design: endogenous in cells; host or cells: K562 cell extract; species or system K562 (extract); replicate k of n = 2 (each experiment ID is one independent experiment; two experiment IDs per compound); settings: read-out: KDapp
# Chain of ABL2 (P42684 whole entry): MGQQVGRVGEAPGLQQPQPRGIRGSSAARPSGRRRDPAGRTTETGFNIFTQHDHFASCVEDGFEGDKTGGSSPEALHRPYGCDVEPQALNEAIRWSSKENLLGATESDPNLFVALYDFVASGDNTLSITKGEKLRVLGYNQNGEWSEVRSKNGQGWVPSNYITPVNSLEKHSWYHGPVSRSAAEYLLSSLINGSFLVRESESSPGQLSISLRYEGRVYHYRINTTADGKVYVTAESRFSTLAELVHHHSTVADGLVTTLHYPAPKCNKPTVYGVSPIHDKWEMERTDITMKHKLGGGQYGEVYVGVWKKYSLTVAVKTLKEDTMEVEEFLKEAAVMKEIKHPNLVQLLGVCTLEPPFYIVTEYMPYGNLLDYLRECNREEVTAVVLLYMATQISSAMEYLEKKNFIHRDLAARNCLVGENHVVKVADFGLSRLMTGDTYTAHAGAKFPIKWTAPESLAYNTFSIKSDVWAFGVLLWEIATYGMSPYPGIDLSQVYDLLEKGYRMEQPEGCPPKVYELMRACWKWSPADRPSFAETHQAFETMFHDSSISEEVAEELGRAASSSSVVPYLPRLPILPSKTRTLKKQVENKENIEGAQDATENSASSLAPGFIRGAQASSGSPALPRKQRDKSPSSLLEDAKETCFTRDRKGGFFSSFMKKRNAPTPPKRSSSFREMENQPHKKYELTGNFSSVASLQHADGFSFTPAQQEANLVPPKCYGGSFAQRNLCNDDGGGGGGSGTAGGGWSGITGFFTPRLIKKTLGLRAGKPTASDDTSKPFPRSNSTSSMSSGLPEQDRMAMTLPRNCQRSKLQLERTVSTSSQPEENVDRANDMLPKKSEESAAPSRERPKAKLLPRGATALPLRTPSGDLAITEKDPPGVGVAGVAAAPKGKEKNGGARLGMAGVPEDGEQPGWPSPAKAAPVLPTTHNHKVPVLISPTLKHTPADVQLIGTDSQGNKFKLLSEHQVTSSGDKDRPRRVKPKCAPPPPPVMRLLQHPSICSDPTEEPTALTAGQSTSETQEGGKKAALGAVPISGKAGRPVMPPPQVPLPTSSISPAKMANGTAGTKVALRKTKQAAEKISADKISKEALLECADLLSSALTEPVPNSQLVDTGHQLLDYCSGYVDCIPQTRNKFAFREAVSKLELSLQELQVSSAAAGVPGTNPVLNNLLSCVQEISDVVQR
# FER = FER (Homo sapiens, UniProt P16591); test: biochemical
# Chain of FER (P16591 whole entry): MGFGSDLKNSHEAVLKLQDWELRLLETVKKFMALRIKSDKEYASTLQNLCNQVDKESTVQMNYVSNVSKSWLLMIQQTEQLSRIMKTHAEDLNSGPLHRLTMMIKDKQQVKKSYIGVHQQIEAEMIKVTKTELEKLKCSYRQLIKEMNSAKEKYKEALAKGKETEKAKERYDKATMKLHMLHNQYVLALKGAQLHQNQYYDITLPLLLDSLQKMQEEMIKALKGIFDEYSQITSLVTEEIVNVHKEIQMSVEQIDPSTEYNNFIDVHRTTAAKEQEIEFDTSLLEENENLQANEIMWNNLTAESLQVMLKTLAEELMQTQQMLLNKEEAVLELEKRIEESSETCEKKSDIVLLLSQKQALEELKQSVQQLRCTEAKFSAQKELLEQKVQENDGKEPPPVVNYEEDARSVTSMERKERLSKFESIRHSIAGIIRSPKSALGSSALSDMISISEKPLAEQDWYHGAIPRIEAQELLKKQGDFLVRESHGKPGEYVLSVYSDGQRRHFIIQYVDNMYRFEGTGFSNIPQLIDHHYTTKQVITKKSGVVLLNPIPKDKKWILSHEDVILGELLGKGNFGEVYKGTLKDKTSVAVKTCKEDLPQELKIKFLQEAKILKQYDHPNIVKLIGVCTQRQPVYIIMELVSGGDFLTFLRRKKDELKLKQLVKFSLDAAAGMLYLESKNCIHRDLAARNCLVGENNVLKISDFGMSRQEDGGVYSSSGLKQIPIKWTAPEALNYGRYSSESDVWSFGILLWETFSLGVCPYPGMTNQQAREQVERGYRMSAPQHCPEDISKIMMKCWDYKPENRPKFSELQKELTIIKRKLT
# IRAK4 = molecular target: T1, IRAK4 (Homo sapiens, UniProt Q9NWZ3); test: biochemical
# T1 sequence (Q9NWZ3 1-460): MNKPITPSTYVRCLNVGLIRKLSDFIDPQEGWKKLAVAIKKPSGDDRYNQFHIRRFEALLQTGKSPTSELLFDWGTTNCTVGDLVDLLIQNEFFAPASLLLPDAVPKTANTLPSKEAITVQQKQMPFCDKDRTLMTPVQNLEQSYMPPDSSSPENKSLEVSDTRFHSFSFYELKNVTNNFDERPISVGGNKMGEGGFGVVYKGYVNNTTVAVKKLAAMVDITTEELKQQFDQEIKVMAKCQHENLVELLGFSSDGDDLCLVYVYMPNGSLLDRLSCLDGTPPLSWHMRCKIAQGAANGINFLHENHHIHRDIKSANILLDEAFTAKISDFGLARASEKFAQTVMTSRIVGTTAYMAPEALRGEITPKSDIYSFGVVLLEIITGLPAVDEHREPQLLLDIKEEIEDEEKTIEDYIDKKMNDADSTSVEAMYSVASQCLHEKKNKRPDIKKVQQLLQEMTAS
# CLK1 = CLK1 (Homo sapiens, UniProt P49759); test: biochemical
# CSNK1E = CSNK1E (Homo sapiens, UniProt P49674); test: biochemical
# MAP4K5 [1] = molecular target: T2, MAP4K5 (Homo sapiens, UniProt Q9Y4K4); test: biochemical
# BRAF = BRAF (Homo sapiens, UniProt P15056); test: biochemical
# [2] = system: human kinases in K562 cell extract; test: Kinobead competition assay, kinome-wide summary; type: binding; settings: for Human kinases with apparent pKd ≥ 4.7 (N = 2) / Human kinases with apparent pKd ≥ 6 (N = 2): K562 extract, number of kinases, 20 μM-0.03 μM compound
# Experimental: Kinobeads were prepared as described.
# MAP4K5 [3] = molecular target: T2, MAP4K5; test: biochemical; design: species or system K562 (extract); replicate k of n = 2 (each experiment ID is one independent experiment; two experiment IDs per compound); settings: read-out: KDapp
# [4] = P. falciparum 3D7, downloaded from ChEMBL ref F.J. Gamo et al., Nature 2010
# [5] = 3D7, downloaded from ChEMBL, ref F.J. Gamo et al., Nature 2010
SMILES,Inhibition of HepG2 cell growth at 10 μM (HepG2 cells) [%],Kd (CDC42BPG) [nM],Kd (PAK4),Kd (CSNK1A1),Kd (CIT),Kd (DDR1),Kd (ABL2),IC50 (FER),IC50 (IRAK4) [nM],IC50 (CLK1),IC50 (CSNK1E),IC50 (MAP4K5 [1]),IC50 (BRAF),Human kinases with apparent pKd ≥ 4.7 (N = 2) [2],Human kinases with apparent pKd ≥ 6 (N = 2) [2],Kd (MAP4K5 [3]),also measured
CN(C)CC(O)COc1ccc(Nc2ncc([N+](=O)[O-])c(Nc3ccccc3O)n2)cc1.O=C(O)C(F)(F)F (stereo not shown) [TCMDC-141399],47,8140,4850 nM and 3670 nM,7650 nM,3750 nM,5970 nM,1890 nM,930 nM and 810 nM,> 20000,390 nM and 270 nM,> 20000 nM,4300 nM,> 20000 nM,63,24,2850 nM,"PCT_INHIB_HEPG2 (HepG2 cells; HepG2 cells, ref ChEMBL): 47; PCT_IHB_3D7 (P. falciparum 3D7 cells; P. falciparum 3D7, ref ChEMBL): 100; pXC50_3D7 (P. falciparum 3D7 cells; P. falciparum 3D7, ref ChEMBL): 6.118"
Cl.NCC1(c2nc(-c3ccc(Cl)c(O)c3)c(-c3ccncc3)[nH]2)CCCCC1 [TCMDC-141154],48,6790,4910 nM,224 nM and 255 nM,137 nM and 239 nM,977 nM,220 nM and 180 nM,> 20000 nM,> 20000,> 20000 nM,330 nM,5000 nM,1100 nM and 900 nM,47,26,3310 nM,"PCT_INHIB_HEPG2 (HepG2 cells; HepG2 cells, downloaded from ChEMBL ref F.J. Gamo et al., Nature 2010): 48; PCT_IHB_3D7 (P. falciparum 3D7 cells; [4]): 98; pXC50_3D7 (P. falciparum 3D7 cells; [4]): 6.128"
CN1CCN(c2ccc(Nc3ncc(C#N)c(Nc4ccccc4C(N)=O)n3)cc2)CC1.Cl [TCMDC-134116],43,848,205 nM and 227 nM,742 nM and 1080 nM,4860 nM and 4950 nM,326 nM and 266 nM,89.8 nM and 71.9 nM,220 nM and 210 nM,170,47 nM and 48 nM,1600 nM and 4100 nM,280 nM and 290 nM,2000 nM,126,96,185 nM and 192 nM,"PCT_INHIB_HEPG2 (HepG2 cells; HepG2, downloaded from ChEMBL, ref F.J. Gamo et al., Nature 2010): 43%; PCT_IHB_3D7 (P. falciparum 3D7 cells; [5]): 92%; pXC50_3D7 (P. falciparum 3D7 cells; [5]): 7.405; Share of human kinases tested bound with high affinity (pKd ≥ 6) ([2]; K562 extract kinobeads): two thirds"
